#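 Grown in 96-well plates, cells were treated for 48 hours with each compound at five concentrations. Insufficient inhibition: endpoint recorded as highest concentration tested. GI50 marks 50% less growth. TGI marks complete inhibition of growth.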 Where a SMILES comes first, the peptide text is derived from it. Bridges are numbered along the chain shown (N, C = ends). [ ]: non-standard residue; d: D form. aThr = C[C@H](O)[C@H](N)C(=O)O
# Legend:
# Experiment in all cases: NCI-60 cell line screen, 48 h
# A549 NSCLC = test system: A549 NSCLC
# HOP-62 NSCLC = test system: HOP-62 NSCLC
# SF-539 CNS = test system: SF-539 CNS
# PC-3 prostate = test system: PC-3 prostate
# SK-MEL-5 melanoma = test system: SK-MEL-5 melanoma
# SW-620 colon = test system: SW-620 colon
# SK-OV-3 ovarian = test system: SK-OV-3 ovarian
# MALME-3M melanoma = test system: MALME-3M melanoma
# MDA-MB-435 = test system: MDA-MB-435
# UO-31 renal = test system: UO-31 renal
Compound,GI50 (A549 NSCLC) [µM],TGI (A549 NSCLC) [µM],GI50 (HOP-62 NSCLC) [µM],TGI (HOP-62 NSCLC) [µM],GI50 (SF-539 CNS) [µM],TGI (SF-539 CNS) [µM],GI50 (PC-3 prostate) [µM],TGI (PC-3 prostate) [µM],GI50 (SK-MEL-5 melanoma) [µM],TGI (SK-MEL-5 melanoma) [µM],GI50 (SW-620 colon) [µM],TGI (SW-620 colon) [µM],GI50 (SK-OV-3 ovarian) [µM],TGI (SK-OV-3 ovarian) [µM],GI50 (MALME-3M melanoma) [µM],TGI (MALME-3M melanoma) [µM],GI50 (MDA-MB-435) [µM],TGI (MDA-MB-435) [µM],GI50 (UO-31 renal) [µM],TGI (UO-31 renal) [µM]
COCCN(CCOC)c1nc(-c2ccccc2)nc2ccccc12,30.1,> 100,22.4,64.3,24.3,52.9,15.1,43.7,15.8,32.9,33.9,> 100,31.9,> 100,20.2,39.9,21.9,55.8,28.1,> 100
Cc1cccc(Cn2cc(CO)c3cnccc32)c1,> 100,> 100,> 100,> 100,> 100,> 100,28.2,> 100,24.1,> 100,> 100,> 100,> 100,> 100,64.6,> 100,49.7,> 100,46.4,> 100
O=C(COc1ccc(/C=C2\Oc3ccccc3C2=O)cc1)Nc1nc2ccccc2s1,4.96,> 72.7,> 69.4,> 100,3.16,> 100,2.27,> 70.6,29.7,> 100,24.2,> 100,61.7,> 100,3.94,> 100,8.21,> 100,13,> 57.6
COCCOC1=C(Cl)C(=O)c2ccccc2C1=O,4.33,21.8,3.92,14.8,2.52,5.79,2.18,5.55,1.82,3.51,1.7,3.32,4.55,16.8,3.08,13.4,3.08,10.4,3.07,16
CC(C)C[C@@H]1NC(=O)[C@@H]2CCCN2C(=O)[C@@H]2CCCN2C(=O)[C@H](CC(C)C)NC(=O)[C@H](CO)NC(=O)[C@H](CCCCN)NC(=O)[C@H]([C@H](C)O)NC(=O)[C@@H]2CSSC[C@@H](NC1=O)C(=O)N[C@@H](Cc1ccccc1)C(=O)N1CCC[C@H]1C(=O)N[C@@H](CC(=O)O)C(=O)NCC(=O)N[C@@H](CCCN=C(N)N)C(=O)N2 (cyclo(C[aThr]KSLPPL[dC]FPDGR); disulfide 1-9),> 50,> 50,> 50,> 50,> 50,> 50,> 50,> 50,> 50,> 50,> 50,> 50,> 50,> 50,> 50,> 50,> 50,> 50,> 50,> 50
COc1cc(OC)c(OC)cc1/C=C/c1nc2ccccc2s1,–,> 100,–,> 100,–,> 100,–,> 100,–,> 100,–,> 100,–,> 100,–,> 100,–,15.1,–,> 100
NC(N)=NCCCC(NCc1c2ccccc2nc2ccccc12)C(=O)O (stereo not given),–,> 100,–,> 100,–,> 100,–,> 100,–,> 62.2,–,> 100,–,> 100,–,> 100,–,> 100,–,> 100
CC(=O)NC1C(O[C@H]2C[C@H]3[C@@H]4CC=C5C[C@@H](O)CC[C@]5(C)[C@H]4CC[C@]3(C)[C@H]2[C@H](C)C(=O)CCC(C)C)OCC(O)C1O (stereo not given in full),5.45,15.3,2.18,8.31,0.568,2.33,2.05,10.3,1.85,6.49,3.21,9.78,2.01,8.39,2.33,9.78,2.06,8.73,1.18,3.52
Cn1c(=O)c2nc3sc4c(n3c2n(C)c1=O)C(=O)c1ccccc1C4=O,–,> 100,–,> 53.3,–,> 74.2,–,> 76.1,–,> 100,–,> 81.9,–,> 60.9,–,> 100,–,> 76,–,> 76
COc1ccc(-c2cc(/C=C/C(=O)c3ccc(N)cc3)[nH]n2)cc1OC,2.75,10.1,2.8,9.67,1.73,3.53,3.71,19.8,3.16,11.5,2.5,6.94,4.86,16.8,6.72,21.2,2.53,7.23,3.03,13.1
